Source: paper PMC3483484 (The Protein Journal, 2012)

Key:
[1] = parameters: method as in earlier work; conditions: cited from earlier work
[2] = target: T1, human serum albumin (HSA) (Homo sapiens, UniProt P02768); test: Equilibrium dialysis: individual and simultaneous binding (displacement) of 6-MP and site I markers to HSA
T1 construct: Human serum albumin (HSA), fraction V, crystallized and lyophilized; purchased Biomed (Lublin, Poland)
Description: Equilibrium dialysis experiment was performed with bags of 5 cm length made from cellulose tubing, 25 mm diameter when inflated (Dialysis Tubing Cellulose Membranes with molecular weight cut-off of 12 kDa, Sigma Aldrich Co). […] The tubes were closed with parafilm, and were stirred constantly at 20 rotations per minute, at 23 °C. A solution of drug(s) in the compartment B and a solution of albumin in the compartment A were allowed to equilibrate. […] The volumes of the solutions in two compartments remained constant during the dialysis procedure and were not corrected. […] Dialysis with each ligand or mixture of ligands was performed in fivefold and the average value of C b was used as binding data. Protein concentration was 1 × 10^−5 M and ligands concentration was 0.8 × 10^−5 M.
The free-ligands concentrations in compartment B at the beginning of the dialysis and after equilibrium were determined by HPLC. […] A column of LiChrospher 100 RP-18 (5 μm in 4 × 250 mm) (Merck KGaA) was used as the stationary phase. […] All solvents were filtered and degassed prior to use. The injection volume was 50 μL in all the cases. The free ligand concentration was determined using a calibration curve obtained from the concentration of dialyzed ligand in the absence of albumin.
The bound ligand concentration (Cb) was calculated by estimation of free-ligand concentration (Cf) according to the equation [57]:1 [drawing 3] where CL(b) was concentration of bound ligand, CL(f) was final concentration of ligand in buffer compartment and CL(0) was starting concentration of ligand (total ligand concentration before equilibrium dialysis).
The percent binding before and after displacement was compared by using a two-way analysis of variance for balanced data. The confidence intervals based on the residual variance were computed for each pairs of bound fraction before and after displacement.

[3] = tested on: HSA; conditions: data from the literature ref 32; cited from earlier work

T1 sequence (P02768 25-609): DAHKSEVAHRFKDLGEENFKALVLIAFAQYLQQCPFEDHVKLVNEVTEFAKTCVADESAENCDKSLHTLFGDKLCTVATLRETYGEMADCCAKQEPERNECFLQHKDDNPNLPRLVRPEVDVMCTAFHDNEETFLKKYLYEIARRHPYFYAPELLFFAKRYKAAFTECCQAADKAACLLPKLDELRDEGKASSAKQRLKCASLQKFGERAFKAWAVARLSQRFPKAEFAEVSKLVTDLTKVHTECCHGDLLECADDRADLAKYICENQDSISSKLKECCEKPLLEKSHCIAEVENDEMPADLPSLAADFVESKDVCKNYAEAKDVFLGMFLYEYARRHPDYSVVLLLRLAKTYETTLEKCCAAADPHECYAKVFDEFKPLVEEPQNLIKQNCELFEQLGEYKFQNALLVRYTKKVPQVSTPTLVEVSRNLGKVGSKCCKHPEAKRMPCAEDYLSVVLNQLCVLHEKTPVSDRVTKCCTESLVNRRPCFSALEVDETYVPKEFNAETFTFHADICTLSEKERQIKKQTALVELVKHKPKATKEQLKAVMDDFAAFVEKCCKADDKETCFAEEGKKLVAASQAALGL

Row | SMILES | bound to serum proteins ([1]; humans, of the administered dose ref 39) | half-life in plasma ([1]; oral dose, humans ref 39) | decrease of free fraction (Δ%) of ABE ([2]; by addition of 6-MP, versus ABE alone, p < 0.05) | Kd ([2]; from fb by Eq. (6), before displacement, HSA 1 × 10^−5 M, read-out: Primary association constant log Kexp^HSA (converted)) | Bound ligand fraction (fb%) before displacement ([2]; individual binding, HSA 1 × 10^−5 M, ligand 0.8 × 10^−5 M, pH 7.4, 23 °C) | Bound ligand fraction (fb%) of site marker after displacement ([2]; simultaneous binding, in presence of 6-MP, HSA 1 × 10^−5 M, ligands 0.8 × 10^−5 M) | Primary association constant log Klit^HSA [3]
1 | Sc1ncnc2nc[nH]c12 [6-MP, 6-Mercaptopurine] | approximately 19% | 20 to 45 min |  |  |  |  | 
2 | CCCCOC(=O)c1ccc(N)cc1 [ABE, n-butyl p-aminobenzoate] |  |  | 3.5% | 17 µM | 37.3 ± 0.7% | 39.5 ± 0.6% | 4.45
